In BigSolDB 2.1:

## Cc1ccc(Nc2nccc(N(C)c3ccc4c(C)n(C)nc4c3)n2)cc1S(N)(=O)=O
In ethanol, 288.15 K
  solubility (mole fraction): 7.97e-06
In ethanol, 293.15 K
  solubility (mole fraction): 1.01e-05
In ethanol, 298.15 K
  solubility (mole fraction): 1.27e-05
In ethanol, 303.15 K
  solubility (mole fraction): 1.61e-05
In ethanol, 308.15 K
  solubility (mole fraction): 1.96e-05
In ethanol, 313.15 K
  solubility (mole fraction): 2.36e-05
In ethanol, 318.15 K
  solubility (mole fraction): 2.85e-05
In ethanol, 323.15 K
  solubility (mole fraction): 3.41e-05
In ethanol, 328.15 K
  solubility (mole fraction): 4.04e-05
In ethyl acetate, 288.15 K
  solubility (mole fraction): 6.17e-06
In ethyl acetate, 293.15 K
  solubility (mole fraction): 8.06e-06
In ethyl acetate, 298.15 K
  solubility (mole fraction): 1.04e-05
In ethyl acetate, 303.15 K
  solubility (mole fraction): 1.31e-05
In ethyl acetate, 308.15 K
  solubility (mole fraction): 1.63e-05
In ethyl acetate, 313.15 K
  solubility (mole fraction): 2e-05
In ethyl acetate, 318.15 K
  solubility (mole fraction): 2.48e-05
In ethyl acetate, 323.15 K
  solubility (mole fraction): 3.06e-05
In ethyl acetate, 328.15 K
  solubility (mole fraction): 3.7e-05
In isopropanol, 288.15 K
  solubility (mole fraction): 9.43e-06
In isopropanol, 293.15 K
  solubility (mole fraction): 1.19e-05
In isopropanol, 298.15 K
  solubility (mole fraction): 1.49e-05
In isopropanol, 303.15 K
  solubility (mole fraction): 1.86e-05
In isopropanol, 308.15 K
  solubility (mole fraction): 2.25e-05
In isopropanol, 313.15 K
  solubility (mole fraction): 2.71e-05
In isopropanol, 318.15 K
  solubility (mole fraction): 3.25e-05
In isopropanol, 323.15 K
  solubility (mole fraction): 3.9e-05
In isopropanol, 328.15 K
  solubility (mole fraction): 4.69e-05
